Earlier results in patent publication US11564963B2, “Topical compositions, process of large-scale manufacture, and method of use” (Progeneron, LLC, priority 2017, dated 2023).
In brackets after ≈: the same amount, converted by molar mass.

Legend:
[1] = 20° C.
[2] = system: Gram-negative bacteria and fungi
[3] = rats

Question: For `NC(=O)c1cccnc1` [Niacinamide], which pKa is on record?
Answer: about 3.35

Question: And the solubility in water [1]?
Answer: 691 mg/mL (≈ 5660 mM)

Question: Which “concentrations required for Gram-negative bacteria and fungi” value [2] does the source give for `[H]/N=C(\N/C(=N/[H])NCCCCCCNC(=N)NC(=N)Nc1ccc(Cl)cc1)Nc1ccc(Cl)cc1` [Chlorhexidine] here?
Answer: 10 to 73 µg/mL

Question: Which LD50 [3] does the source give for `OCc1ccccc1` [Benzyl Alcohol] here?
Answer: 1.2 gm/kg
